Test results reported in US9770469B2, “Methods of reprogramming renal cells” (Tel HaShomer Medical Research Infrastructure and Services …, priority 2009, dated 2017).

Experiments:
adult kidney cells [1] = test: Methylation immunoprecipitation (MeDIP) of Six2 and Wt1 promoters; assay type: cell-based, human
Experimental: […] (MeDIP): 10 μg of sonicated genomic DNA (100-400 bp in length) was denatured, incubated 0/N at 4° C. with […] of anti-methyl cytosine antibody (Diagenode, Belgium), and subsequently with 60 μl of protein A fast flow beads (Upstate Biotechnologies) for 2 hours at 4° C. The beads were washed and incubated with digestion buffer (50 mM Tris-HCl pH 8.0, 10 mM EDTA, 0.5% SDS) and proteinase K for 3 hours and the DNA extracted by phenol-chloroform and EtOH precipitation. The samples were tested by quantitative RT PCR with the indicated primers at table 2. The sonicated DNA served as input.

adult kidney cells [2] = test: Chromatin immunoprecipitation (ChIP) of Six2 and Wt1 promoters; assay type: cell-based, human; conditions: VPA 4 mM
Experimental: Chromatin Immunoprecipitation Assay (ChIP): 10×10^6 cells adult kidney cells were grown. Untreated cells (control) or cells treated with VPA (4 mM) were cross-linked with 1% formaldehayde for 10 min at RT in culture medium. The cells were washed and harvested in cold phosphate-buffered saline (PBS) containing protease inhibitors (Complete mini, Roche Applied Science) and Pepstatin (Sigma). The cells were then washed with Buffer B (20 mM Hepes pH 7.6, 0.25% Triton-x, 10 mM EDTA, 0.5 mM EGTA) and Buffer C (50 mM Hepes pH 7.6, 150 mM NaCl, 1 mM EDTA, 0.5 mM EGTA) were resuspended in 300 μl of SDS lysis buffer [1% SDS, 10 mM EDTA and 50 mM Tris-HCl (pH 8.1)], and incubated on ice for 10 minutes. Lysates were sonicated with 8×10 second bursts and debris were removed by centrifugation for 10 minutes at 1000 g, at 4° C. Supernatants were diluted 10-fold in ChIP dilution buffer [0.01% SDS, 1.1% Triton X-100, 1.2 mM EDTA, 16.7 mM Tris-HCl (pH 8.1) and 167 mM NaCl] and pre-cleared by incubating with 40 μl of protein A+salmon sperm beads (Upstate Biotechnology) for 30 minutes at 4° C. Beads were pelleted for 1 minute at 1000 g at 4° C. A total of 10 μl of the supernatant was saved as input, and the rest was divided into equal aliquots and incubated by rocking with either control Ab (IgG) or with of specific antibodies; Trimethyl-Histon 3K27 antibody (Upstate Biotechnology), anti acetylatedhistone H4 (Upstate Biotechnology) over night at 4° C. A total of 60 μl of protein A+salmon sperm beads was added, and the samples were rocked for 2 hours at 4° C. The complexes on the beads were washed for 5 minutes at 4° C. with the following buffers: low salt [0.1% SDS, 1% Triton X-100, 2 mM EDTA, 20 mM Tris-HCl (pH 8.1) and 150 mM NaCl], high salt [0.1% SDS, 1% Triton X-100, 2 mM EDTA, 20 mM Tris-HCl (pH 8.1), 500 mM NaCl], LiCl wash [0.25 M LiCl, 1% Nonidet P-40, 1% deoxycholate, 1 mM EDTA and 10 mM Tris-HCl (pH 8.1)], and twice with TE [10 mM Tris-HCl and 1 mM EDTA (pH 8.0)]. Immune complexes were eluted twice with 200 μl of elution buffer [1% SDS and 0.1 M NaHCO3]for 15 minutes at room temperature. The samples were de-crosslinked by adding 16 μl of 5 M NaCl, 8 μl of 0.5 M EDTA (pH 6.5) and 16 μl of 1M Tris-HCl (pH 8.1) and incubated O.N at 65° C. Proteinase K (10 mg/ml) and the samples were incubated for additional 2 hours at 55° C. Immunoprecipitated DNA was recovered by phenol/chloroform extraction and ethanol precipitation and was analyzed by quantitative RT PCR.

human fetal kidney cells [3] = test: β-catenin immunofluorescence after VPA; assay type: cell-based; conditions: valproic acid 24 hours, vs non-treated cells
Experimental: (§1) Immunofluorescence Staining: AK, FK (treated and untreated) human epithelial cell line and fibroblast cell line were fixed with acetone at −20° C. for seven minutes and washed with PBS. Cells were blocked with 7% human serum in PBS for 15 minutes followed by incubation with β-catenin antibody (1:150) (Chemicon international) for 60 minutes. Cells were washed and then incubated with secondary antibody with Cy-3 conjugated anti-mouse IgG (1:200) (Jackson) for 30 minutes. For nuclear staining, cells were washed with PBS containing Hochest (Dako). The presence of β-catenin was examined under a Zeiss confocal fluorescence microscope.

human adult kidney cells [4] = test: β-catenin immunofluorescence after VPA; assay type: cell-based; conditions: valproic acid 24 hours, vs non-treated cells
Experimental: as §1

human fetal kidney cells [5] = test: Western blot for Six2 and Wt1 after VPA; assay type: cell-based; conditions: 24 h after VPA exposure
Experimental: (§2) Cell Treatment: Cells were treated for 24 hours with growth medium supplemented with 1, 2, or 4 mM VPA (Sigma) or with H2O for control sample. Otherwise, cells were treated for 24 hours with growth medium supplemented with the combination of 75 μM TSA (Sigma) and 250 μM 5-AZA (Sigma) or with 100% Ethanol and Acetic Acid (Acetic Acid: H2O 1:1) for control sample. […] 24 hours prior to harvesting VPA at a concentration of 4 mM was added to the cell culture.
(§3) Western Blot: AK, FK (treated and untreated) and Melanoma cells were harvested with Tripsin/EDTA. Cell extracts were prepared with lysis buffer (50 mM Tris-HCl, 150 mM NaCl, 0.1 mM EDTA, 0.5 mM DTT, 1.5 mM MgCl, 0.5% Triton-X) and their concentrations were detected by BCA protein assay kit (Thermo scientific). 100 μg of total proteins were heated at 95° C. for 5 min with laemmli sample buffer (Bio-rad) and then were loaded on SDS-10% polyacrylamide gel. After electrophoresis, proteins were transferred to nitrocellulose membrane that was blocked with 5% nonfat dry milk overnight at 4° C. The membrane was reacted with the required antibodies, namely Six2 (Affinity Bioreagents), WT1 (Santa Cruz), goat anti-rabbit IgG (Jackson). The membrane was reacted with ECL substrate (Thermo scientific) and was exposed to medical x-ray film (Fuji).

human adult kidney cells [6] = test: Western blot for Six2 and Wt1 after VPA; assay type: cell-based; conditions: 24 h after VPA exposure
Experimental: as §2, §3

CCCC(CCC)C(=O)O [VPA, valproic acid]
DNA methylation on Wt1 promoter (adult kidney cells [1]; VPA treatment): minimally effected
DNA methylation at the Six2 promoter (adult kidney cells [1]; with or without VPA): DNA hypomethylation at the Six2 promoter loci regardless of VPA treatment
H3K4me at Six2 promoter regions (adult kidney cells [2]): significant increases
H3K4me elevation in the Wt1 promoter region (adult kidney cells [2]): not
H3K27me in the Wt1 promoter region (adult kidney cells [2]): modest elevation
H3K27me levels at Six2 promoter regions (adult kidney cells [2]): no change
acetylated histones H4 at Six2 promoter regions (-92, -412, -541, -731, -955, -1157) (adult kidney cells [2]): significantly increased
β-catenin immunofluorescence localisation (human fetal kidney cells [3]): cyoplasmic and nuclear accumulation
β-catenin immunofluorescence localisation (human adult kidney cells [4]): cyoplasmic and nuclear accumulation
Six2 protein levels (human fetal kidney cells [5]; 4 mM): increment
Wt1 protein levels (human fetal kidney cells [5]; 2 and 4 mM): no changes
Six2 protein levels (human adult kidney cells [6]; 4 mM): increment
Wt1 protein levels (human adult kidney cells [6]; 2 and 4 mM): no changes
